Assay results published in patent publication US10174156B2, “Hyperbranched polyester with a hydrophobic nucleus for solubilizing poorly soluble active substances” (BASF SE, priority 2009, dated 2019).

Test: physchem
Settings: pH 7, aqueous buffer, thermodynamic from solid
Procedure: 2 g of polymer were weighed into a 50 ml beaker. Subsequently, 0.2 g of active ingredient in each case was weighed into the mixture in order to obtain an oversaturated solution. […] The mixture was then stirred at room temperature with the aid of a magnetic stirrer for 72 h. After a rest time of 1 h, excess (i.e. unsolubilized) active ingredient was removed by filtration. The clear or opaque solution thus obtained was subsequently analyzed for its active ingredient content by means of UV spectroscopy or HPLC.

- solubility at 72 h: < 100 µg/mL
Structure (SMILES): Clc1ccccc1C(c1ccccc1)(c1ccccc1)n1ccnc1 [Clotrimazole]
